Measurements taken from patent publication US20260184675A1, “CHIRAL ISOMERIC SULFITE COMPOUND AND APPLICATION THEREOF” (Chengdu Hanova BioSciences Co., Ltd, priority 2024, published 2026).

Tests used:
Magnaporthe grisea = assay type: cell-based; conditions: 100 ppm; for Average antifungal rate (%) / Antifungal rate of Magnaporthe grisea (%), Replicate 1 / Antifungal rate of Magnaporthe grisea (%), Replicate 2 / Antifungal rate of Magnaporthe grisea (%), Replicate 3: 96-well plate; for Average antifungal rate (%): average of 3 replicates
eggs of Thrips = experiment: Effect on hatching of eggs of Thrips, leaf disc method; assay type: in vivo; conditions: 100 ppm; for Hatching rate (%): 5 days after insecticide delivery
Method in brief: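 Egg-bearing Vicia faba leaf discs (diameter 2.0 cm, wetted filter paper beneath) were counted microscopically for baseline eggs. They were then soaked for 10 seconds in water or in test agent at 100 ppm. After moist incubation in lidded dishes, with controlled temperature and humidity and adequate indirect light, hatched larvae were counted five days post-delivery to judge hatching inhibition.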

[1] = system: eggs of Tetranychus urticae; experiment: Effect on hatching of eggs of Tetranychus urticae, leaf disc method; assay type: in vivo; conditions: 5 ppm; for Hatching rate (%): 5 days after insecticide delivery
Method in brief: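 This leaf disc test measured inhibition of Tetranychus urticae egg hatching. Eggs laid on Vicia faba discs were counted microscopically, and the discs were soaked for 10 seconds in compound at 5 ppm, with clear water as control. They were incubated under controlled temperature and humidity with strong indirect light, avoiding condensate. Hatched eggs, leaf damage and developmental abnormalities were recorded five days after delivery.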

[2] = system: pest eggs of Tetranychus cinnabarinus; experiment: Effect on hatching of pest eggs of Tetranychus cinnabarinus, leaf disc method; assay type: in vivo; conditions: for Hatching rate (%): 7 days after insecticide delivery; for inhibitory effect on the hatching of pest eggs of Tetranychus cinnabarinus (in words): 1 ppm
Method in brief: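 Adult female mites laid eggs on 2.0 cm Vicia faba leaf discs for up to 36 h; discs with counted eggs were dipped 10 s in compound solution or water, then kept moist. Hatched eggs were counted 7 days after treatment and control effect was calculated by formula.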

[3] = Replicate 1, listed as 19′-(S, R)
[4] = Replicate 2, listed as 19′-(S, R)
[5] = Replicate 3, listed as 19′-(S, R)
[6] = Replicate 1, listed as 1′-(R, R)
[7] = Replicate 2, listed as 1′-(R, R)
[8] = Replicate 3, listed as 1′-(R, R)

Compound	inhibitory rate against Magnaporthe grisea (in words) (Magnaporthe grisea)	Average antifungal rate (%) (Magnaporthe grisea)	Antifungal rate of Magnaporthe grisea (%), Replicate 1 (Magnaporthe grisea) [%]	Antifungal rate of Magnaporthe grisea (%), Replicate 2 (Magnaporthe grisea) [%]	Antifungal rate of Magnaporthe grisea (%), Replicate 3 (Magnaporthe grisea) [%]	Hatching rate (%) ([2]; 0.25 mg/L, Replicate 1)	Hatching rate (%) ([2]; 0.25 mg/L, Replicate 2)	Number of hatched larvae 7 days after insecticide delivery ([2]; 0.25 mg/L, Replicate 1)	Number of hatched larvae 7 days after insecticide delivery ([2]; 0.25 mg/L, Replicate 2)	Hatching rate (%) ([2]; 0.5 mg/L, Replicate 1)	Hatching rate (%) ([2]; 0.5 mg/L, Replicate 2)	Number of hatched larvae 7 days after insecticide delivery ([2]; 0.5 mg/L, Replicate 1)	Number of hatched larvae 7 days after insecticide delivery ([2]; 0.5 mg/L, Replicate 2)	Hatching rate (%) ([2]; 1 mg/L, Replicate 1)	Hatching rate (%) ([2]; 1 mg/L, Replicate 2)	Number of hatched larvae 7 days after insecticide delivery ([2]; 1 mg/L, Replicate 1)	Number of hatched larvae 7 days after insecticide delivery ([2]; 1 mg/L, Replicate 2)	Hatching rate (%) (eggs of Thrips; Replicate 1)	Hatching rate (%) (eggs of Thrips; Replicate 2)	Hatching rate (%) (eggs of Thrips; Replicate 3)	also measured
CC[C@@H](COS(=O)OCCF)Oc1ccc(Cl)cc1Cl (stereo partly drawn) [19′-(S,R)]	strong inhibitory rate	86.23	86.44	85.97	86.28	68.49	69.23	23	20	35.09	32.79	37	41	0.00	1.85	68	53				Hatching rate (%) (eggs of Thrips; [3]): 9.40%; Hatching rate (%) (eggs of Thrips; [4]): 10.32%; Hatching rate (%) (eggs of Thrips; [5]): 9.52%; Number of hatched larvae 5 days after insecticide delivery (eggs of Thrips; [3]): 11; Number of hatched larvae 5 days after insecticide delivery (eggs of Thrips; [4]): 13; Number of hatched larvae 5 days after insecticide delivery (eggs of Thrips; [5]): 8; Hatching rate (%) [1, 3]: 10.81%; Hatching rate (%) [1, 4]: 11.49%; Number of hatched larvae 5 days after insecticide delivery [1, 3]: 12; Number of hatched larvae 5 days after insecticide delivery [1, 4]: 10
CC(COc1ccc(Cl)cc1Cl)OS(=O)OCCF [1′-(R,R)]	strong inhibitory rate	84.86	84.82	83.06	86.71	69.57	82.22	14	8	36.84	36.51	36	40	25.37	8.00	50	69				Hatching rate (%) (eggs of Thrips; [6]): 12.68%; Hatching rate (%) (eggs of Thrips; [7]): 12.79%; Hatching rate (%) (eggs of Thrips; [8]): 14.29%; Number of hatched larvae 5 days after insecticide delivery (eggs of Thrips; [6]): 18; Number of hatched larvae 5 days after insecticide delivery (eggs of Thrips; [7]): 11; Number of hatched larvae 5 days after insecticide delivery (eggs of Thrips; [8]): 15; Hatching rate (%) [1, 6]: 17.91%; Hatching rate (%) [1, 7]: 19.28%; Number of hatched larvae 5 days after insecticide delivery [1, 6]: 12; Number of hatched larvae 5 days after insecticide delivery [1, 7]: 16
CC(COS(=O)OCCF)Oc1ccc(Cl)cc1Cl (stereo not drawn) [Compound 1]	strong inhibitory rate	95.42	96.34	95.11	94.82	72.22	67.92	20	17	32.58	38.30	42	29	0.00	1.64	53	60	0.00	1.57	0.00	inhibitory activity on the hatching of eggs of Thrips (in words) (eggs of Thrips): strong inhibitory activities; Number of hatched larvae 5 days after insecticide delivery (eggs of Thrips; Replicate 1): 0; Number of hatched larvae 5 days after insecticide delivery (eggs of Thrips; Replicate 2): 2; Number of hatched larvae 5 days after insecticide delivery (eggs of Thrips; Replicate 3): 0; inhibitory activity on the hatching of eggs of Tetranychus urticae (in words) [1]: strong inhibitory activities; Hatching rate (%) ([1]; Replicate 1): 0.94%; Hatching rate (%) ([1]; Replicate 2): 1.30%; Number of hatched larvae 5 days after insecticide delivery ([1]; Replicate 1): 1; Number of hatched larvae 5 days after insecticide delivery ([1]; Replicate 2): 1; inhibitory effect on the hatching of pest eggs of Tetranychus cinnabarinus (in words) [2]: excellent inhibitory effects
CC(COc1ccc(Cl)cc1Cl)OS(=O)OCCF (stereo not drawn) [Compound 1′]	strong inhibitory rate	94.28	95.78	98.76	88.30	69.81	70.83	16	21	36.24	31.11	42	31	0.00	1.69	47	58	0.00	0.00	0.97	inhibitory activity on the hatching of eggs of Thrips (in words) (eggs of Thrips): strong inhibitory activities; Number of hatched larvae 5 days after insecticide delivery (eggs of Thrips; Replicate 1): 0; Number of hatched larvae 5 days after insecticide delivery (eggs of Thrips; Replicate 2): 0; Number of hatched larvae 5 days after insecticide delivery (eggs of Thrips; Replicate 3): 1; inhibitory activity on the hatching of eggs of Tetranychus urticae (in words) [1]: strong inhibitory activities; Hatching rate (%) ([1]; Replicate 1): 0.00%; Hatching rate (%) ([1]; Replicate 2): 1.98%; Number of hatched larvae 5 days after insecticide delivery ([1]; Replicate 1): 0; Number of hatched larvae 5 days after insecticide delivery ([1]; Replicate 2): 2; inhibitory effect on the hatching of pest eggs of Tetranychus cinnabarinus (in words) [2]: excellent inhibitory effects
CC(C)(COc1ccc(Cl)cc1Cl)OS(=O)OCCF (stereo not drawn) [Compound R-10]	strong inhibitory rate	82.52	81.97	83.68	81.92	73.21	74.03	15	20	42.67	41.94	28	36	8.11	6.25	68	60	15.31	14.50	14.53	Number of hatched larvae 5 days after insecticide delivery (eggs of Thrips; Replicate 1): 15; Number of hatched larvae 5 days after insecticide delivery (eggs of Thrips; Replicate 2): 19; Number of hatched larvae 5 days after insecticide delivery (eggs of Thrips; Replicate 3): 17; Hatching rate (%) ([1]; Replicate 1): 18.06%; Hatching rate (%) ([1]; Replicate 2): 16.13%; Number of hatched larvae 5 days after insecticide delivery ([1]; Replicate 1): 13; Number of hatched larvae 5 days after insecticide delivery ([1]; Replicate 2): 15
